Source: US5432195A, “Benzofuran derivative and pharmaceutical composition” (Nippon Shinyaku Company Limited, priority 1991, dated 1995)
Counter-ions that a name gives are not always drawn.

Tests used:
[1] = system: fatty acid synthesis (liver slices of rat); assay: lipid biosynthesis by tissue slices of liver of rat: fatty acid synthesis; assay type: cell-based; conditions: 10 μg/ml, percentage to the control; for activity at 10 µg/mL: Rattus norvegicus, 2 h, read-out: Fatty Acid Synth.; for Fatty Acid Synth.: 120 min
Method: (§1) 5) Action of the compounds of the present invention to lipid biosynthesis by tissue slices of liver of rat
(§2) Test method: Krebs-Ringer-Bicarbonate solution (1 ml) containing 1 mM of ^14 C-acetic acid and 10 μg/ml of the test substance was added to 100 mg of liver slices of rat, the air was substituted with a mixed gas (oxygen:carbon dioxide=95:5) and incubation was conducted at 37° C. for 2 hours. After completion of the reaction, 15% ethanolic solution of potassium hydroxide was added and saponification was conducted at 75° C. for 2 hours. A part of the saponified solution was subjected to a measurment of protein. Residual saponified solution was extracted with petroleum ether and the radioactivity of the petroleum ether layer was measured to determine the cholesterol synthesizing activity. The aqueous layer was acidified with 6N hydrochloric acid, extracted with petroleum ether and the radioactivity of the extract was measured to determine fatty acid synthesizing activity. The values were expressed in terms of percentage to the control after calculating the mol numbers (nmol/mg) of the ^14 C-acetic acid incorporated into each extract per protein (nmol/mg protein).

[2] = system: cholesterol synthesis (liver slices of rat); assay: lipid biosynthesis by tissue slices of liver of rat: cholesterol synthesis; assay type: cell-based; conditions: 10 μg/ml, percentage to the control; for activity at 10 µg/mL: Rattus norvegicus, 2 h, read-out: Cholesterol Synth.; for Cholesterol Synth.: 120 min
Method: as §1, §2

[3] = system: total cholesterol (TC) in serum; assay: lowering total cholesterol (TC) in serum using normal rhesus monkeys; assay type: in vivo; conditions: oral
From the text: 1) An action of lowering total cholesterol (TC) in serum using normal rhesus monkeys. Test Method: Male rhesus monkeys of 2-5 years age (body weight: 3.0-6.4 kg; Experiment No.1) or male rhesus monkeys of 2-6 years age (body weight: 3.5-8.0 kg; Expt. Nos. 2, 3 and 4) were subjected to the experiments. During the experiment, solid feed (manufactured by Oriental Yeast) was given at the dose of 150 g once daily. Each group consisted of 2 to 6 monkeys. The substance to be tested was in a form of suspension in 0.5% methylcellulos solution. The suspension was given orally using rubber probe at the dose of 30, 50 or 100 mg/kg for seven days (Expt. Nos. 1 and 2(2)) or for 28 days (Expt. Nos. 2(1), 3 and 4). Blood was taken from saphena in lower limbs one week and immediately before the administration and also 7, 14, 21 and 28 days after the administration of the suspension whereby serum TC was measured. The change rate of serum TC was calculated by the following expression. The change rate of serum TC=(ATC-BTC)/BTC×100 In the expression, ATC is the TC after administration of the substance tested while BTC is the TC before the administration (average of those one week and immediately before the administration).

serum TC = assay: Serum TC lowering action in normal crab-eating macaques; assay type: in vivo
From the text: 2) Serum TC lowering action in normal crab-eating macaques.
Test Method: Male crab-eating macaques (body weight: 2.5-6.6 kg) were subjected to the experiments. During the expriment period, the feed (manufactured by Oriental Yeast) containing 0.1% (Expt. No. 1) or 0.3% (Expt. No. 2) of the compound of Example 4 was given once daily a 35 g/kg for 5 weeks (0.1%) or for 8 weeks (0.3%). Usual feed for monkeys was given to the control group. Blood was taken immediately before the administration and 1, 2 and 5 weeks after the administration in the case of 0.1% mixed feed or, in the case of 0.3% mixed feed, immediately before and 2, 4, 6 and 8 weeks after the administration. All operations for taking blood were conducted prior to giving the feed and the serum TC therein was measured. The change rate of the serum TC was calculated by the following expression.
The change rate of serum TC=(ATC-BTC)/BTC×100
In the expression, ATC is the TC after administration of the substance tested and BTC is the TC immediately before administration.

Mice of ddY-strain = assay: Acute Toxicity; assay type: in vivo; conditions: oral, 2 g/kg
Method: Mice of ddY-strain (7 weeks age; four mice per group) were fasted overnight, the compound of Example 4 of the present invention suspended in 0.5% methylcellulose solution was orally administered at 2 g/kg and the general symptoms until 3 hours after that and those until one week thereafter were checked.

Lp(a) [4] = assay: Influence on Lp(a): lowering Lp(a) in plasma in crab-eating monkeys; assay type: in vivo; conditions: 0.3% in feed, average ± S.E.
Method: Five to six crab-eating monkeys (male; body weight ranging 5-9 kg) as one group were fed and, to the group administered with the test sample, the feed containing 0.3% of this invention compound (that of Example 4) was fed while, to the control group, usual feed was given. The Lp(a) concentrations in the plasma were measured by the following method at the initiation of the administration, 13 weeks thereafter and 5 weeks after completion of the administration.
Commercially-available kit manufactured by Biopool Co, was used. In accordance with the procedures as given in the kit, PET buffer and sample buffer were prepared. To 20 μl of the plasma was added 1 ml of sample buffer and to 10 μl or 20 μl the resulting diluted liquid was further added 1.01 ml or 1 ml of the sample buffer to that the liquid diluted to an extent of 5202 times or 2601 times was prepared. In accordance with the steps as instructed by the kit, each 20 μl of the diluted sample was added to each well and measurement was conducted by duplicate. The result was calculated from the working curve prepared from the data obtained for the standard human Lp(a) in the kit.

[5] = system: fatty acid synthesis (liver slices of rat); assay: lipid biosynthesis of tissue slices of liver of rat (part 2): fatty acid synthesis; assay type: cell-based; conditions: 2 h, 10 μg/ml, percentage to the control
Method: as §2
(§3) 6) Action of the compounds of the present invention to lipid biosynthesis of tissue slices of liver of rat (part 2)
(§4) The activity of the present invention compound was measured by the same manner as above 5). The values were expressed in terms of percentage to the control after calculating the mol numbers (nmol/mg) of the ^14 C-acetic acid incorporated into each extract per protein (nmol/mg protein).

[6] = system: cholesterol synthesis (liver slices of rat); assay: lipid biosynthesis of tissue slices of liver of rat (part 2): cholesterol synthesis; assay type: cell-based; conditions: 2 h, 10 μg/ml, percentage to the control
Method: as §2, §3, §4

Lp(a) [7] = conditions: J. Internal Medicine 226 271-276 (1989); cited from earlier work

CC(C)(C)c1ccc2oc(C(O)COc3ccc(C(=O)O)cc3)cc2c1 (single isomer, unassigned; (+)) [Example 11, (+)-5-tert-Butyl-2-[2-(4-carboxyphenoxy)-1-hydroxyethyl]benzofuran]
activity at 10 µg/mL ([1]; Expt. 1): 12% | activity at 10 µg/mL ([1]; Expt. 2): 18% | activity at 10 µg/mL ([2]; Expt. 1): 35% | activity at 10 µg/mL ([2]; Expt. 2): 24%

CC(C)(C)c1ccc2oc(C(O)COc3ccc(C(=O)O)cc3)cc2c1 (single isomer, unassigned; (-)) [Example 12, (-)-5-tert-Butyl-2-[2-(4-carboxyphenoxy)-1-hydroxyethyl]benzofuran]
Fatty Acid Synth. ([1]; Expt. 1): 16% | Fatty Acid Synth. ([1]; Expt. 2): 14% | Cholesterol Synth. ([2]; Expt. 1): 33% | Cholesterol Synth. ([2]; Expt. 2): 27%

CC(C)(Oc1ccc(CCNC(=O)c2ccc(Cl)cc2)cc1)C(=O)O [Bezafibrate, reference compound]
TC Change Rate ([3]; 100 mg/kg, after 7 days): -13% | TC Change Rate ([3]; 100 mg/kg, after 14 days): -10% | TC Change Rate ([3]; 100 mg/kg, after 21 days): 3% | TC Change Rate ([3]; 100 mg/kg, after 28 days): -7%

CC(C)(C)c1ccc2oc(C(O)COc3ccc(C(=O)O)cc3)cc2c1 (stereo not shown) [Example 4, 5-tert-Butyl-2-[2-(4-carboxyphenoxy)-1-hydroxyethyl]benzofuran]
TC Change Rate (serum TC; 0.1% in the feed, after 1 week): 16% | TC Change Rate (serum TC; 0.1% in the feed, after 2 weeks): -18% | TC Change Rate (serum TC; 0.1% in the feed, after 5 weeks): -31% | TC Change Rate (serum TC; 0.3% in the feed, after 2 weeks): -32% | TC Change Rate (serum TC; 0.3% in the feed, after 4 weeks): -46% | TC Change Rate (serum TC; 0.3% in the feed, after 6 weeks): -42% | TC Change Rate (serum TC; 0.3% in the feed, after 8 weeks): -37% | Acute toxicity: deaths (Mice of ddY-strain; observed until one week): no animals tested were dead | Acute toxicity: general symptoms (Mice of ddY-strain; until 3 hours and until one week thereafter): no abnormal symptoms were noticed | Plasma Lp(a) (Lp(a) [4]; 5 weeks after completion of administration): 60.1 ± 7.9 mg/dL | Plasma Lp(a) (Lp(a) [4]; 13 weeks thereafter): 9.2 ± 1.2 mg/dL | Plasma Lp(a) (Lp(a) [4]; Immed. after administration (text: at the initiation)): 73.2 ± 8.5 mg/dL | activity at 10 µg/mL ([1]; Expt. 1): 20% | activity at 10 µg/mL ([1]; Expt. 2): 12% | activity at 10 µg/mL ([2]; Expt. 1): 41% | activity at 10 µg/mL ([2]; Expt. 2): 27% | activity at 10 µg/mL [5]: 29% | activity at 10 µg/mL [6]: 61%

CC(C)c1ccc2oc(C(O)COc3ccc(C(=O)O)cc3)cc2c1 (stereo not shown) [Example 6, 2-[2-(4-Carboxyphenoxy)-1-hydroxyethyl]5-isopropylbenzofuran]
TC Change Rate ([3]; 100 mg/kg, after 7 days): -42%

CC(C)c1ccc2oc(C(O)COc3ccc(C(=O)O)cc3)cc2c1 (stereo not shown) [Example 8, 2-[2-(4-Carboxyphenoxy)-1-hydroxyethyl]-5-isopropylbenzofuran sodium salt]
TC Change Rate ([3]; 50 mg/kg, after 7 days): -31% | TC Change Rate ([3]; 50 mg/kg, after 14 days): -31% | TC Change Rate ([3]; 50 mg/kg, after 21 days): -44% | TC Change Rate ([3]; 50 mg/kg, after 28 days): -51%

CC(C)c1ccc2oc(C(O)COc3ccc(C(=O)O)cc3)cc2c1 (stereo not shown) [Example 9, 2-[2-(4-Carboxyphenoxy)-1-hydroxyethyl]-5-isopropylbenzofuran calcium salt]
TC Change Rate ([3]; 30 mg/kg, after 7 days): -19% | TC Change Rate ([3]; 30 mg/kg, after 14 days): -34% | TC Change Rate ([3]; 30 mg/kg, after 21 days): -29% | TC Change Rate ([3]; 30 mg/kg, after 28 days): -24%

CC(C)c1ccc2oc(C(O)COc3ccc(CO)cc3)cc2c1 (stereo not shown) [Example 10, 2-[1-Hydroxy-2-(4-hydroxymethylphenoxy)ethyl]-5-isopropylbenzofuran]
TC Change Rate ([3]; 100 mg/kg, after 7 days): -32%

CC(C)(C)c1ccc2oc(C(=O)COc3ccc(C(=O)O)cc3)cc2c1 [Example 14, 5-tert-Butyl-2-(4-carboxyphenoxyacetyl)benzofuran]
activity at 10 µg/mL [5]: 32% | activity at 10 µg/mL [6]: 64%

CC(=O)OC(COc1ccc(C(=O)O)cc1)c1cc2cc(C(C)C)ccc2o1 (stereo not shown) [Example 17, 2-[1-Acetoxy-2-(4-carboxyphenoxy)ethyl]-5-isopropylbenzofuran]
activity at 10 µg/mL [5]: 33% | activity at 10 µg/mL [6]: 66%

O=C(O)c1cccnc1 [Nicotinic acid]
adverse reactions (Lp(a) [7]): flushing | concentration of Lp(a) in blood (Lp(a) [7]): lowers the concentration of Lp(a) in blood
